What all share (test): relative viability (nuclei count vs DMSO), 5 days (fraction); higher = more cells survive
Compound in the experiment “Erlotinib + Alpelisib”: C#Cc1cccc(Nc2ncnc3cc(OCCOC)c(OCCOC)cc23)c1 [Erlotinib] + Cc1nc(NC(=O)N2CCC[C@H]2C(N)=O)sc1-c1ccnc(C(C)(C)C(F)(F)F)c1 [Alpelisib] (partner 2 µM)
In short, it runs like this: (§1)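 Relative viability was taken as the ratio of nuclei in treated wells to nuclei in vehicle wells. Lung cancer cell lines in 1536-well plates received compounds by pin tool one day after seeding, either one drug alone or a fixed anchor-drug dose plus five library-drug doses (not always all listed) in √10 steps. Nuclei were counted on 4× images after 5 days of treatment, and values are medians of duplicate plates.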

Compound in the experiment “Erlotinib + Bortezomib”: C#Cc1cccc(Nc2ncnc3cc(OCCOC)c(OCCOC)cc23)c1 [Erlotinib] + CC(C)C[C@H](NC(=O)[C@H](Cc1ccccc1)NC(=O)c1cnccn1)B(O)O [Bortezomib] (partner 0.002 µM)
An outline of the steps: as §1

Compound in the experiment “AT9283 + Luminespib”: O=C(Nc1c[nH]nc1-c1nc2ccc(CN3CCOCC3)cc2[nH]1)NC1CC1 [AT9283] + CCNC(=O)c1noc(-c2cc(C(C)C)c(O)cc2O)c1-c1ccc(CN2CCOCC2)cc1 [Luminespib] (partner 0.01 µM)
In short, it runs like this: as §1

Compound in the experiment “Erlotinib + AZD7762”: C#Cc1cccc(Nc2ncnc3cc(OCCOC)c(OCCOC)cc23)c1 [Erlotinib] + NC(=O)Nc1cc(-c2cccc(F)c2)sc1C(=O)N[C@H]1CCCNC1 [AZD7762] (partner 0.2 µM)
An outline of the steps:
as §1

Compound in the experiment “AT9283 + Pictilisib”: O=C(Nc1c[nH]nc1-c1nc2ccc(CN3CCOCC3)cc2[nH]1)NC1CC1 [AT9283] + CS(=O)(=O)N1CCN(Cc2cc3nc(-c4cccc5[nH]ncc45)nc(N4CCOCC4)c3s2)CC1 [Pictilisib] (partner 1 µM)
An outline of the steps: as §1

As to H3255, the relative viability with Erlotinib + Alpelisib (first compound 0.02 µM) was 0.674; in the experiment with Erlotinib + Alpelisib (first compound 0.2 µM), 0.34; with Erlotinib + Alpelisib (first compound 0.6325 µM) it was 0.16; with Erlotinib + Alpelisib (first compound 2 µM), 0.13; with Erlotinib + Bortezomib (first compound 0.02 µM), 0.99; with Erlotinib + Bortezomib (first compound 0.2 µM), 0.758. Also, the relative viability in the experiment with Erlotinib + Bortezomib (first compound 0.6325 µM) came out at 0.244; with Erlotinib + Bortezomib (first compound 2 µM), 0.179; in the experiment with AT9283 + Luminespib (first compound 0.003 µM) it was 0.713; with AT9283 + Luminespib (first compound 0.03 µM) it was 0.905; with AT9283 + Luminespib (first compound 0.09487 µM), 0.969; with AT9283 + Luminespib (first compound 0.3 µM) it was 0.254. Moreover, the relative viability with Erlotinib + AZD7762 (first compound 0.02 µM) was found to be 0.794; in the experiment with Erlotinib + AZD7762 (first compound 0.2 µM), 0.619; with Erlotinib + AZD7762 (first compound 0.6325 µM), 0.516; with Erlotinib + AZD7762 (first compound 2 µM), 0.238; in the experiment with AT9283 + Pictilisib (first compound 0.003 µM), 0.448; in the experiment with AT9283 + Pictilisib (first compound 0.03 µM) it was 0.461. Further, the relative viability worked out at 0.213 in the experiment with AT9283 + Pictilisib (first compound 0.09487 µM) and 0.148 with AT9283 + Pictilisib (first compound 0.3 µM).

For the cell line ABC-1, the relative viability turned out to be 1.09 with Erlotinib + Alpelisib (first compound 0.02 µM); 1.2 in the experiment with Erlotinib + Alpelisib (first compound 0.2 µM); 1.01 with Erlotinib + Alpelisib (first compound 0.6325 µM); 0.92 with Erlotinib + Alpelisib (first compound 2 µM); 0.25 with Erlotinib + Bortezomib (first compound 0.02 µM); 0.355 in the experiment with Erlotinib + Bortezomib (first compound 0.2 µM). For the same cell line, the relative viability with Erlotinib + Bortezomib (first compound 0.6325 µM) turned out to be 0.328; with Erlotinib + Bortezomib (first compound 2 µM), 0.287; with AT9283 + Luminespib (first compound 0.003 µM), 0.579; with AT9283 + Luminespib (first compound 0.03 µM) it was 0.246; in the experiment with AT9283 + Luminespib (first compound 0.09487 µM) it was 0.275; in the experiment with AT9283 + Luminespib (first compound 0.3 µM), 0.189. The relative viability came out at 0.789 with Erlotinib + AZD7762 (first compound 0.02 µM); 0.647 with Erlotinib + AZD7762 (first compound 0.6325 µM); 0.507 with Erlotinib + AZD7762 (first compound 2 µM); 0.76 with AT9283 + Pictilisib (first compound 0.003 µM); 0.269 with AT9283 + Pictilisib (first compound 0.03 µM); 0.232 with AT9283 + Pictilisib (first compound 0.09487 µM). Also, the relative viability with AT9283 + Pictilisib (first compound 0.3 µM) came to 0.256.

As to NCI-H1299, the relative viability is 1.07 with Erlotinib + Alpelisib (first compound 0.02 µM); 1.03 with Erlotinib + Alpelisib (first compound 0.2 µM); 1.1 with Erlotinib + Alpelisib (first compound 0.6325 µM); 1.03 in the experiment with Erlotinib + Alpelisib (first compound 2 µM); 1.11 with Erlotinib + Bortezomib (first compound 0.02 µM); 1.05 with Erlotinib + Bortezomib (first compound 0.2 µM). The relative viability was found to be 0.997 in the experiment with Erlotinib + Bortezomib (first compound 0.6325 µM); 1 with Erlotinib + Bortezomib (first compound 2 µM); 0.731 in the experiment with AT9283 + Pictilisib (first compound 0.003 µM); 0.238 with AT9283 + Pictilisib (first compound 0.03 µM); 0.116 with AT9283 + Pictilisib (first compound 0.09487 µM); 0.112 with AT9283 + Pictilisib (first compound 0.3 µM).

In the case of NCI-H1993, the relative viability in the experiment with Erlotinib + Alpelisib (first compound 0.02 µM) amounted to 0.73; with Erlotinib + Alpelisib (first compound 0.2 µM), 0.644; in the experiment with Erlotinib + Alpelisib (first compound 0.6325 µM), 0.647; with Erlotinib + Alpelisib (first compound 2 µM) it was 0.739; in the experiment with Erlotinib + Bortezomib (first compound 0.02 µM), 1.01; in the experiment with Erlotinib + Bortezomib (first compound 0.2 µM) it was 0.698. Besides, the relative viability in the experiment with Erlotinib + Bortezomib (first compound 0.6325 µM) is 0.809; with Erlotinib + Bortezomib (first compound 2 µM), 0.739; with AT9283 + Luminespib (first compound 0.003 µM), 0.977; in the experiment with AT9283 + Luminespib (first compound 0.03 µM), 0.521; with AT9283 + Luminespib (first compound 0.09487 µM), 0.523; in the experiment with AT9283 + Luminespib (first compound 0.3 µM) it was 0.45. Also, the relative viability was 0.732 with Erlotinib + AZD7762 (first compound 0.02 µM); 0.555 with Erlotinib + AZD7762 (first compound 0.2 µM); 0.566 with Erlotinib + AZD7762 (first compound 0.6325 µM); 0.535 with Erlotinib + AZD7762 (first compound 2 µM); 0.841 in the experiment with AT9283 + Pictilisib (first compound 0.003 µM); 0.748 with AT9283 + Pictilisib (first compound 0.03 µM). The relative viability amounted to 0.934 with AT9283 + Pictilisib (first compound 0.09487 µM) and 0.661 in the experiment with AT9283 + Pictilisib (first compound 0.3 µM).

With LOU-NH91, the relative viability with Erlotinib + Alpelisib (first compound 0.02 µM) amounted to 0.539; with Erlotinib + Alpelisib (first compound 0.2 µM), 0.495; with Erlotinib + Alpelisib (first compound 0.6325 µM) it was 0.527; with Erlotinib + Alpelisib (first compound 2 µM), 0.512; with Erlotinib + Bortezomib (first compound 0.02 µM) it was 0.525; with Erlotinib + Bortezomib (first compound 0.2 µM), 0.497. For the same cell line, the relative viability turned out to be 0.484 with Erlotinib + Bortezomib (first compound 0.6325 µM); 0.458 with Erlotinib + Bortezomib (first compound 2 µM); 0.321 in the experiment with AT9283 + Luminespib (first compound 0.003 µM); 0.353 with AT9283 + Luminespib (first compound 0.03 µM); 0.358 in the experiment with AT9283 + Luminespib (first compound 0.09487 µM); 0.32 in the experiment with AT9283 + Luminespib (first compound 0.3 µM). Moreover, the relative viability was 0.682 in the experiment with Erlotinib + AZD7762 (first compound 0.02 µM); 0.692 in the experiment with Erlotinib + AZD7762 (first compound 0.2 µM); 0.769 in the experiment with Erlotinib + AZD7762 (first compound 0.6325 µM); 0.684 in the experiment with Erlotinib + AZD7762 (first compound 2 µM); 0.469 with AT9283 + Pictilisib (first compound 0.003 µM); 0.487 in the experiment with AT9283 + Pictilisib (first compound 0.03 µM). Also, the values for the relative viability with AT9283 + Pictilisib (first compound 0.09487 µM) and in the experiment with AT9283 + Pictilisib (first compound 0.3 µM) were 0.482 and 0.394, respectively.

Take LC-2-ad: the relative viability came out at 0.909 with Erlotinib + Alpelisib (first compound 0.02 µM); 0.843 in the experiment with Erlotinib + Alpelisib (first compound 0.2 µM); 0.834 with Erlotinib + Alpelisib (first compound 0.6325 µM); 0.686 in the experiment with Erlotinib + Alpelisib (first compound 2 µM); 1.02 with Erlotinib + Bortezomib (first compound 0.02 µM); 1.02 with Erlotinib + Bortezomib (first compound 0.2 µM). Moreover, the relative viability with Erlotinib + Bortezomib (first compound 2 µM) came to 0.868; with AT9283 + Luminespib (first compound 0.003 µM), 0.918; in the experiment with AT9283 + Luminespib (first compound 0.03 µM) it was 0.594; with AT9283 + Luminespib (first compound 0.09487 µM), 0.357; in the experiment with AT9283 + Luminespib (first compound 0.3 µM) it was 0.263; with Erlotinib + AZD7762 (first compound 0.02 µM), 0.843. Also, the relative viability with Erlotinib + AZD7762 (first compound 0.2 µM) amounted to 0.508; with Erlotinib + AZD7762 (first compound 0.6325 µM), 0.514; with Erlotinib + AZD7762 (first compound 2 µM), 0.389; with AT9283 + Pictilisib (first compound 0.003 µM), 0.396; with AT9283 + Pictilisib (first compound 0.03 µM), 0.194; with AT9283 + Pictilisib (first compound 0.09487 µM), 0.0807. The relative viability in the experiment with AT9283 + Pictilisib (first compound 0.3 µM) came out at 0.0727.

Take HCC-15: the relative viability with Erlotinib + Alpelisib (first compound 0.02 µM) is 0.897; with Erlotinib + Alpelisib (first compound 0.2 µM), 0.844; in the experiment with Erlotinib + Alpelisib (first compound 0.6325 µM), 0.913; in the experiment with Erlotinib + Alpelisib (first compound 2 µM) it was 0.77; in the experiment with Erlotinib + Bortezomib (first compound 0.02 µM), 1.01; in the experiment with Erlotinib + Bortezomib (first compound 0.2 µM), 1.12. Moreover, the relative viability with Erlotinib + Bortezomib (first compound 0.6325 µM) came to 1.12; in the experiment with Erlotinib + Bortezomib (first compound 2 µM), 0.969; with AT9283 + Luminespib (first compound 0.003 µM) it was 0.302; with AT9283 + Luminespib (first compound 0.03 µM), 0.234; in the experiment with AT9283 + Luminespib (first compound 0.09487 µM) it was 0.133; with AT9283 + Luminespib (first compound 0.3 µM), 0.115. In addition, the relative viability with Erlotinib + AZD7762 (first compound 0.02 µM) was 1.34; with Erlotinib + AZD7762 (first compound 0.2 µM), 1.25; with Erlotinib + AZD7762 (first compound 0.6325 µM) it was 1.31; with Erlotinib + AZD7762 (first compound 2 µM) it was 1.07; in the experiment with AT9283 + Pictilisib (first compound 0.003 µM) it was 0.686; with AT9283 + Pictilisib (first compound 0.03 µM), 0.494. For the same cell line, the relative viability came out at 0.136 with AT9283 + Pictilisib (first compound 0.09487 µM) and 0.138 with AT9283 + Pictilisib (first compound 0.3 µM).

On to NCI-H650, for which the relative viability with Erlotinib + Alpelisib (first compound 0.02 µM) was 1.22; with Erlotinib + Alpelisib (first compound 0.2 µM), 1.25; in the experiment with Erlotinib + Alpelisib (first compound 0.6325 µM) it was 1.11; with Erlotinib + Alpelisib (first compound 2 µM), 1.06; in the experiment with Erlotinib + Bortezomib (first compound 0.02 µM) it was 0.749; with Erlotinib + Bortezomib (first compound 0.2 µM), 0.88. In addition, the relative viability in the experiment with Erlotinib + Bortezomib (first compound 0.6325 µM) was found to be 0.958; in the experiment with AT9283 + Luminespib (first compound 0.003 µM) it was 0.771; with AT9283 + Luminespib (first compound 0.03 µM), 0.701; in the experiment with AT9283 + Luminespib (first compound 0.09487 µM), 0.242; with AT9283 + Luminespib (first compound 0.3 µM), 0.173; in the experiment with Erlotinib + AZD7762 (first compound 0.02 µM), 0.953. The relative viability in the experiment with Erlotinib + AZD7762 (first compound 0.2 µM) came out at 1.19; in the experiment with Erlotinib + AZD7762 (first compound 0.6325 µM), 1.23; with Erlotinib + AZD7762 (first compound 2 µM), 1.28; with AT9283 + Pictilisib (first compound 0.003 µM), 0.853; in the experiment with AT9283 + Pictilisib (first compound 0.03 µM), 0.816; with AT9283 + Pictilisib (first compound 0.09487 µM), 0.274. Further, the relative viability with AT9283 + Pictilisib (first compound 0.3 µM) is 0.186.
